≈ marks a conversion by molar mass, not a printed value. Read-outs that look alike come from different tables or passages of the source.
What was measured:
Acinetobacter baumanii = assay: MIC test, multi-resistant Acinetobacter baumanii; type: cell-based; settings: multi-resistant strain; averages of multiple test runs; log2 dilutions from 250 μg/ml
Method: (§1) The activities of the compounds were tested in two different screening systems. The antibacterial and antifungal activities were examined by means of an MIC test, MIC standing for “minimal inhibitory concentration” and referring to the lowest concentration of a substance at which no proliferation of microorganisms can be observed with the naked eye. The MIC is determined by means of a so called titration method in which the substance is diluted and, subsequently, the pathogen is added to it.
(§2) Usually, this method is applied in order to determine the concentration of an antibiotic which only just inhibits the growth of a bacterial strain. The MIC is indicated in micrograms per milliliter (μg/ml), and the dilutions are conventionally carried out in log2 steps. Herein, a starting concentration of 250 μg/ml was diluted several times, to the double volume in each case, resulting in test concentrations of 250 μg/ml, 125 μg/ml, 62.5 μg/ml, 31.2 μg/ml, 15.6 μg/ml, 7.8 μg/ml, etc. Thus, lower values indicate a better activity as an anti-infective.
(§3) The tests were carried out according to the standards of EUCAST (European Committee for Antimicrobial Susceptibility Testing) and according to the AFST-protocol (“Antifungal Susceptibility Testing” protocol) of the European Society of Clinical Microbiology and Infectious Diseases (ESCMID).
(§4) In the following Table 3, the test results indicating the anti-infective action of altersolanol M, alterporriol I and J as well as of some known and structurally similar comparative substances against some multi-resistant bacteria and fungi (all of which were kindly placed at our disposal by Prof Georgopulos from the Medical University of Vienna). The data constituting averages of the values obtained in multiple test runs.

[1] = system: methicillin-resistant Staphylococcus aureus; assay: MIC test, MRSA; type: cell-based; settings: for MIC: Staphylococcus aureus, MRSA, read-out: MHK values MRSA (methicillin-resistant Staphylococcus aureus)
Method: as §1, §2, §3, §4

Staphylococcus epidermis = assay: MIC test, multi-resistant Staphylococcus epidermis; type: cell-based; settings: for MIC: Staphylococcus, read-out: MHK values SE (Staphylococcus epidermis)
Method: as §1, §2, §3, §4

E. coli = assay: MIC test, multi-resistant E. coli; type: cell-based; settings: multi-resistant strain; averages of multiple test runs; log2 dilutions from 250 μg/ml
Method: as §1, §2, §3, §4

Streptococcus pneumoniae = assay: MIC test, multi-resistant Streptococcus pneumoniae; type: cell-based; settings: for MHK values STR (Streptococcus pneumoniae): multi-resistant strain, averages of multiple test runs, log2 dilutions from 250 μg/ml
Method: as §1, §2, §3, §4

[2] = system: Enterococcus faecalis or faecium; assay: MIC test, multi-resistant Enterococcus; type: cell-based; settings: multi-resistant strain; averages of multiple test runs; log2 dilutions from 250 μg/ml
Method: as §1, §2, §3, §4

bacteria and fungi = settings: Aly et al., Phytochemistry 69, 1716-1725; cited from earlier work
[3] = Yagi et al., Phytochemistry 34(4), 1005-1009 (1993); cited from earlier work
[4] = system: Aspergillus fumigatus or faecalis; assay: MIC test (antifungal), Aspergillus; type: cell-based; settings: multi-resistant strain; averages of multiple test runs; log2 dilutions from 250 μg/ml
Method: as §1, §2, §3, §4

Klebsiella sp. = assay: MIC test, multi-resistant Klebsiella sp.; type: cell-based; settings: multi-resistant strain; averages of multiple test runs; log2 dilutions from 250 μg/ml
Method: as §1, §2
(§5) The tests were carried out according to the standards of EUCAST (European Committee for Antimicrobial Susceptibility Testing) and according to the AFST-protocol (“Antifungal Susceptibility Testing” protocol) of the European Society of Clinical Microbiology and Infectious Diseases (ESCMID). […]

[5] = system: Staphylococcus aureus or methicillin-resistant Staphylococcus aureus; settings: Xu et al. 2008; Sommart et al. 2008; cited from earlier work
Pseudomonas aeruginosa = assay: MIC test, multi-resistant Pseudomonas aeruginosa; type: cell-based; settings: multi-resistant strain; averages of multiple test runs; log2 dilutions from 250 μg/ml
Method: as §1, §2, §5

[6] = multi-resistant strain, averages of multiple test runs, log2 dilutions from 250 μg/ml
[7] = verbal summary of the MIC test series

Compound | MHK values AB (Acinetobacter baumanii) (Acinetobacter baumanii) | MHK values STR (Streptococcus pneumoniae) (Streptococcus pneumoniae) | MHK values EK (Enterococcus faecalis or faecium) [2] | MIC (Staphylococcus epidermis; [6]) | MHK values ASP (Aspergillus fumigatus or faecalis) [4] | also measured
COc1cc(O)c(C(=O)O)c(-c2cc(O)c(O)cc2C)c1 [Altenusin] | 62.5 µg/mL | 31.2 µg/mL | 62.5 µg/mL |  |  | MIC [1]: 31.2 µg/mL (≈ 107 µM); MIC (Staphylococcus epidermis): 31.2 µg/mL (≈ 107 µM); MHK values EC (E. coli) (E. coli): 62.5 µg/mL
COc1cc(O)c2c(c1)C(=O)C1=C(C2=O)[C@H](O)[C@@H](O)[C@@](C)(O)[C@@H]1O [Altersolanol A, 7-methoxy-2-methyl-(1R,2S,3R,4S)-1,2,3,4-tetrahydro-1,2,3,4,5-pentahydroxy-anthracene-9,10-dione] | 62.5 µg/mL | 7.8 µg/mL | 15.6 µg/mL | 7.8 µg/mL (≈ 23.2 µM) | 7.8 µg/mL | MIC [1]: 7.8 µg/mL (≈ 23.2 µM); activity against bacteria and fungi (bacteria and fungi): most efficient of the tested substances; MHK values EC (E. coli) (E. coli): 62.5 µg/mL; anti-microbial activity [3]: anti-microbial activity
COc1cc(O)c2c(c1)C(=O)[C@H]1C[C@](C)(O)[C@H](O)C[C@@H]1[C@H]2O [Altersolanol J] | 125 µg/mL | 15.6 µg/mL | 31.2 µg/mL |  | 125 µg/mL | MHK values MRSA (methicillin-resistant Staphylococcus aureus) [1, 6]: 62.5 µg/mL; MHK values SE (Staphylococcus epidermis) (Staphylococcus epidermis; [6]): 62.5 µg/mL; activity against bacteria and fungi (bacteria and fungi): do not show any activity; MHK values KL (Klebsiella sp.) (Klebsiella sp.): 125 µg/mL
COc1cc(O)c2c(c1)[C@H](O)[C@@H]1[C@@H](C2=O)[C@H](O)[C@@H](O)[C@@](C)(O)[C@@H]1O [Ampelanol] |  |  |  |  |  | activity against bacteria and fungi (bacteria and fungi): do not show any activity
COC1=CC(=O)c2c(O)c3c(c(O)c2C1=O)C[C@](C)(O)[C@H](O)[C@H]3O [Bostrycin] | 125 µg/mL | 62.5 µg/mL |  | 125 µg/mL (≈ 372 µM) |  | MIC [1, 6]: 125 µg/mL (≈ 372 µM)
COc1cc(O)c2c(c1)C(=O)[C@@H]1[C@H](C[C@@H](O)[C@@](C)(O)[C@@H]1O)[C@H]2O [Example 2, (1R,2R,3R,4aS,9aR,10R)-1,2,3,5,10-pentahydroxy-7-methoxy-2-methyl-1,2,3,4,4a,9a-hexahydro-9H,10H-anthracen-9-one] |  | 31.2 µg/mL | 31.2 µg/mL | 31.2 µg/mL (≈ 96.2 µM) | 62.5 µg/mL | MIC [1, 6]: 31.2 µg/mL (≈ 96.2 µM)
COc1cc(O)c2c(c1)[C@H](O)[C@@H]1[C@H](C[C@@H](O)[C@@](C)(O)[C@@H]1O)C2=O [Example 3, (2R,3R,4R,4aS,9aS,10R)-2,3,4,8,10-pentahydroxy-6-methoxy-3-methyl-1,2,3,4,4a,9a-hexahydro-9H,10H-anthracen-9-one] | 7.8 µg/mL | 7.8 µg/mL | 7.8 µg/mL | 7.8 µg/mL (≈ 24 µM) | 31.2 µg/mL | MIC [1, 6]: 7.8 µg/mL (≈ 24 µM)
COc1cc2c(c(O)c1-c1c(OC)cc(O)c3c1C(=O)C1=C(C3=O)[C@H](O)[C@@H](O)[C@@](C)(O)[C@H]1O)C(=O)c1cc(O)c(C)cc1C2=O [Example 4, 8-(1,7-dihydroxy-6-methyl-3-methoxy-9,10-dioxo-9H,10H-anthracen-2-yl)-(1S,2S,3R,4S)-1,2,3,4,5-pentahydroxy-7-methoxy-2-methyl-1,2,3,4-tetrahydro-9H,10H-anthracen-9,10-dione] |  | 7.8 µg/mL | 7.8 µg/mL | 7.8 µg/mL (≈ 12.6 µM) | 125 µg/mL | MIC [1]: 7.8 µg/mL (≈ 12.6 µM)
COc1cc(O)c2c(c1O)[C@H](O)[C@H]1C[C@](C)(O)[C@H](O)C[C@@H]1C2=O [Example 5, (2R,3S,4aS,9aS,10R)-2,3,5,8,10-penta-hydroxy-6-methoxy-3-methyl-1,2,3,4,4a,9a-hexahydro-9H,10H-anthracen-9-one] |  | 7.8 µg/mL | 125 µg/mL | 15.6 µg/mL (≈ 48.1 µM) | 31.2 µg/mL | MIC [1, 6]: 15.6 µg/mL (≈ 48.1 µM); activity against methicillin-resistant Staphylococcus aureus, in words [1, 7]: very good activity; effectiveness against Staphylococcus aureus or methicillin-resistant Staphylococcus aureus [5]: slight effectiveness; activity against Streptococcus pneumoniae, in words (Streptococcus pneumoniae; [7]): excellent effectiveness
COc1cc(O)c2c(c1)C(=O)c1cc(C)c(O)cc1C2=O [Macrosporin] | 125 µg/mL |  |  | 62.5 µg/mL (≈ 220 µM) |  | MIC [1, 6]: 62.5 µg/mL (≈ 220 µM); MHK values EC (E. coli) (E. coli): 62.5 µg/mL
COc1cc(O)c2c(c1)C(=O)C1=C(C[C@@H](O)[C@@](C)(O)C1)C2=O [altersolanol B] |  |  |  |  |  | anti-microbial activity [3]: anti-microbial activity
COc1cc(O)c2c(c1)C(=O)C1=C(C[C@@H](O)[C@@](C)(O)[C@@H]1O)C2=O [altersolanol C] |  |  |  |  |  | anti-microbial activity [3]: anti-microbial activity
Alterporriol A + B | 125 µg/mL | 7.8 µg/mL | 15.6 µg/mL |  | 62.5 µg/mL | MHK values MRSA (methicillin-resistant Staphylococcus aureus) [1, 6]: 15.6 µg/mL; MHK values SE (Staphylococcus epidermis) (Staphylococcus epidermis; [6]): 15.6 µg/mL
Indole carbaldehyde (carboxaldehyde) | 125 µg/mL | 62.5 µg/mL |  |  |  | MHK values PS (Pseudomonas aeruginosa) (Pseudomonas aeruginosa): 125 µg/mL
Macrosporin sulfate | 125 µg/mL | 31.2 µg/mL |  |  |  | 
alterporriols D and E |  |  |  |  |  | activity against bacteria and fungi (bacteria and fungi): do not show any activity
altersolanol D |  |  |  |  |  | anti-microbial activity [3]: completely ineffective
altersolanol F |  |  |  |  |  | anti-microbial activity [3]: completely ineffective
